Like-named read-outs stand apart in the source and are kept apart here.
Assays:
mouse melan-a cells = assay: Melanocyte proliferant activity of piperine derivatives, SRB assay, 4 days, 10% FBS; assay type: cell-based; settings: for Relative activity to piperine: (A-100) compound/(A-100) piperine; for activity at 1 µM / activity at 10 µM / activity at 50 µM / activity at 100 µM / activity at 25 µM: Mus musculus, Melan-a, 96 h; for Active at 10 μM? / More active than piperine at higher conc. (μM)?: overall summary; for More active than piperine at higher conc. (μM)?: concentrations at which more active than piperine
Protocol: The plates were incubated at 37° C. in a 10% CO2, 90% air humidified atmosphere for the stated length of time. At the end of the incubation, an SRB assay was performed. Briefly, cells attached to the bottom of the plate were fixed by addition of cold trichloroacetic acid (TCA, 4° C., Aldrich, Dorset, UK) on the top of the growth medium (final TCA 20% w/v). The plate was placed at 4° C. for 1 hour before being gently washed five times with tap water. It was allowed to dry in air, or aided with a hair dryer to speed up the drying process, then 50 μl of 4% w/v SRB dissolved in 1% acetic acid in water was added to each well for 30 min. At the end of the staining period, unbound SRB was removed by washing 4 times with 1% acetic acid. The plate was air dried again, and 150 μl of 10 mM aqueous Tris base (Sigma-Aldrich Co. Ltd, Irvine, UK) was added into each well to solubilize the cell-bound dye.
Various piperine derivatives of formula (1) were synthesised and tested for melanocyte (mouse melan-a) proliferant activity in-vitro. Cells we re incubated with the test compound for 4 days, as previously for the mouse cells but with 10% FBS, after which the sulphorhodamine-B (SRB) assay was performed to determnine cell number SRB uptake was measured as optical density at 550 nm. The control assay was carried out on cells incubated without test compound. There were 2 or 3 series of experiments, each of which consisted of six replcate experiments.
Percentage cell growth was obtained with a given compound calculated as (optical density in the presence of the compound/control optical density)×100.
Melan-a cell proliferant activity for tested compounds was compared with that obtained with piperine. […] All figures are given with Standard Error of the Mean.

melan-a cells = assay: Dendricity of melan-a cells by observation under microscope; assay type: cell-based, mouse; parameters: key: +++: highly dendritic; ++: moderately dendritic; +: weakly dendritic; −: no effect
Text: Effect on dendricity of melan-a cells by the test compounds was by observation under microscope. Dendricity is relevant to vitiligo since normal skin melanocytes have dendrites, but in vitiligo the melanocytes seem to lose these before they disappear from the patches.

[1] = read-out: growth of melan-a cells as % of control, dose experiment
[2] = 10 μM, read-out: growth of melan-a cells as % of control, dose experiment
[3] = single concentration (10 μM), melan-a, ± SEM, read-out: Percentage cell growth (Repeated experiments)
[4] = single concentration (10 μM), melan-a

Row | SMILES | Relative activity to piperine (mouse melan-a cells; 10 μM) | activity at 1 µM (mouse melan-a cells; [1]) [%] | activity at 10 µM (mouse melan-a cells; [2]) [%] | activity at 50 µM (mouse melan-a cells; [1]) [%] | activity at 100 µM (mouse melan-a cells; [1]) [%] | activity at 10 µM (mouse melan-a cells; [3]) [%] | Active at 10 μM? (mouse melan-a cells; melan-a) | Stimulant activity (mouse melan-a cells; [4]) | Dentricity, dose experiment (melan-a cells; 1 μM) | Dentricity, dose experiment (melan-a cells; 10 μM) | Dentricity, dose experiment (melan-a cells; 50 μM) | Dentricity, dose experiment (melan-a cells; 100 μM) | Dendricity (melan-a cells; Table 7, 10 μM) | Dendricity (melan-a cells; Table 9, 10 μM) | activity at 25 µM (mouse melan-a cells; [1]) [%] | Dendricity (melan-a cells; Table 8, 10 μM) | More active than piperine at higher conc. (μM)? (mouse melan-a cells) | Dendricity (melan-a cells; Table 11, 10 μM) | Dendricity (melan-a cells; Table 12, 10 μM)
1 | O=C(/C=C/C=C/c1ccc2c(c1)OCO2)NC1CCCCC1 [RV-A10, 5-E,E-piperinoyl cyclohexylamine] | 1.02 | 301 ± 20 | 308 ± 29 | 155 ± 22 | 100 ± 13 | 308 ± 29 | Yes | Positive | +++ | +++ | + | + | +++ |  |  |  |  |  | 
2 | CCCCNC(=O)/C=C/C=C/c1ccc2c(c1)OCO2 [RV-A11, 5-E,E-piperinoylbutylamine] | 0.66 | 189 ± 6 | 264 ± 21 | 158 ± 20 | 84 ± 6 | 264 ± 21 | Yes | Positive | +++ | +++ | ++ | + | +++ |  |  |  |  |  | 
3 | COC(=O)/C=C/C=C/c1ccc2c(c1)OCO2 [RV-AB1, 5-E,E-piperinic Acid Methyl Ester] |  | 125 ± 13 | 147 ± 16 | 187 ± 12 | 171 ± 8 |  | Yes | Positive | − | + | ++ | ++ |  | ++ |  |  |  |  | 
4 | CCOC(=O)/C=C/C=C/c1ccc2c(c1)OCO2 [RV-AB2, 5-E,E-piperinic Acid Ethyl Ester] |  |  |  |  |  | 29 ± 9 | No^c | Positive |  |  |  |  |  | Toxic |  |  |  |  | 
5 | CC(C)OC(=O)/C=C/C=C/c1ccc2c(c1)OCO2 [RV-AB4, 5-E,E-piperinic Acid Isopropyl Ester] | 0.8 | 175 ± 6 | 224 ± 12 | 148 ± 19 | 90 ± 7 | 224 ± 12 | Yes | Positive | ++ | ++ | ++ | + |  | ++ |  |  |  |  | 
6 | CCCOC(=O)/C=C/C=C/c1ccc2c(c1)OCO2 [RV-AB5, 5-E,E-piperinic Acid Propyl Ester] | 0.95 | 120 ± 21 | 151 ± 19 | 163 ± 8 | 123 ± 8 | 166 ± 35 | Yes | Positive | − | ++ | ++ | + |  | ++ |  |  |  |  | 
7 | CCCCOC(=O)/C=C/C=C/c1ccc2c(c1)OCO2 [RV-AB6, 5-E,E-piperinic Acid Butyl Ester] | 0.59 | 103 ± 5 | 148 ± 18 | 190 ± 11 | 128 ± 17 | 148 ± 18 | Yes | Positive | − | + | ++ | + |  | + |  |  |  |  | 
8 | O=C(/C=C/c1ccc2c(c1)OCO2)N1CCCCC1 [RV-B01, 1-(3-trans-benzo-1,3-dioxol-5-ylacryloyl)piperidine] |  | 111 ± 6 | 147 ± 7 | 187 ± 8 |  |  | Yes | Positive |  |  |  |  |  |  | 187 ± 18 | ++ |  |  | 
9 | O=C(/C=C/c1ccc2c(c1)OCO2)N1CCCC1 [RV-B02, 1-(3-trans-benzo-1,3-dioxol-5-ylacryloyl)pyrrolidine] |  |  |  |  |  | 140 ± 14 | No^b | Non- significant |  |  |  |  |  |  |  | + |  |  | 
10 | O=C(/C=C/c1ccc2c(c1)OCO2)N1CCOCC1 [RV-B03, 1-(3-trans-benzo-1,3-dioxol-5-ylacryloyl)morpholine] |  |  |  |  |  | 103 ± 12 | No | None |  |  |  |  |  |  |  | − |  |  | 
11 | O=C(CCCCc1ccc2c(c1)OCO2)N1CCCCC1 [RV-C02, Tetrahydropiperine] |  | 134 ± 15 | 183 ± 33 | 175 ± 12 |  |  | Yes | Positive |  |  |  |  |  |  | 199 ± 31 |  | No | +++ | 
12 | O=C(CCc1ccc2c(c1)OCO2)N1CCCCC1 [RV-C03, 3-benzo-1,3-dioxol-5-ylpropionic Acid Piperidide] |  |  |  |  |  | 104 ± 5 | No^b | None |  |  |  |  |  |  |  |  |  | + | 
13 | COc1ccccc1/C=C/C(=O)N1CCCCC1 [RV-G01, 1-(2-methoxy-cinnamoyl)-piperidine] | 0.04 | 99 ± 8 | 105 ± 8 | 103 ± 6 | 119 ± 9 | 105 ± 8 | No | None | − | − | − | − |  |  |  |  | No |  | 
14 | COc1cccc(/C=C/C(=O)N2CCCCC2)c1 [RV-G02, 1-(3-methoxy-cinnamoyl)piperidine] |  | 99 ± 5 | 95 ± 18 | 110 ± 11 | 127 ± 9 |  | No | Negative | − | − | − | − |  |  |  |  | No |  | 
15 | COc1ccc(/C=C/C(=O)N2CCCCC2)cc1 [RV-G03, 1-(4-methoxy-cinnamoyl)piperidine] |  | 90 ± 10 | 108 ± 20 | 111 ± 10 | 133 ± 15 | 121 ± 8 | No | Non- significant | − | − | − | − |  |  |  |  | No |  | −
16 | COc1ccc(/C=C/C(=O)N2CCCCC2)cc1OC [RV-G04, 1-(3,4-dimethoxycinnamoyl)piperidine] |  | 95 ± 11 | 100 ± 9 | 114 ± 8 | 123 ± 7 | 100 ± 9 | No | None | − | − | − | − |  |  |  |  | No |  | −
